According to patent publication US20240041042A1, “1-(PYRIDYL)-5-AZINYLPYRAZOLE DERIVATIVES, AND THEIR USE FOR CONTROL OF UNDESIRED PLANT GROWTH” (Bayer Aktiengesellschaft, priority 2020, published 2024):
Read-outs that look alike come from different tables or passages of the source.

Tests used:
Assay type in all cases: in vivo
[1] = system: Alopecurus myosuroides (ALOMY); assay: Pre-emergence herbicidal action against ALOMY; conditions: 320 g/ha; scored visually after about 3 weeks; 100% = plants have died
In short: (§1)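 Pre-emergence soil-surface spray of compound, formulated as wettable powder or emulsion concentrate, in aqueous suspension or emulsion with 0.5% additive (600 l/ha; rate 320 g/ha or less). Activity rated visually after roughly 3 weeks in the greenhouse as a percentage of untreated controls, 0% meaning no difference.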

[2] = system: Amaranthus retroflexus (AMARE); assay: Pre-emergence herbicidal action against AMARE; conditions: 320 g/ha, visual scoring after about 3 weeks vs untreated controls
In short: as §1

Avena fatua (AVEFA) [3] = assay: Pre-emergence herbicidal action against AVEFA; conditions: 320 g/ha, visual scoring after about 3 weeks vs untreated controls
In short: as §1

Lolium rigidum (LOLRI) [4] = assay: Pre-emergence herbicidal action against LOLRI; conditions: dosage 320 g/ha
In short: as §1

[5] = system: Matricaria inodora (MATIN); assay: Pre-emergence herbicidal action against MATIN
In short: as §1

Setaria viridis (SETVI) [6] = assay: Pre-emergence herbicidal action against SETVI; conditions: dosage 320 g/ha
In short: as §1

Viola tricolor (VIOTR) [7] = assay: Pre-emergence herbicidal action against VIOTR
In short: as §1

Glycine max (GLXMA) = conditions: pre-emergence, 80 g/ha, crop plant compatibility, in comparison to untreated controls
In short: (§2)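 Scoring: visual, % of untreated control, about 3 weeks after a pre-emergence application to the soil surface. Application used WP or EC formulations diluted in water with 0.5% additive at 600 l/ha; dosage levels are marked by suffixes a, b and c.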

Zea mays (ZEAMX) [8] = conditions: pre-emergence, 80 g/ha, crop plant compatibility, in comparison to untreated controls
In short: as §2

[9] = system: Alopecurus myosuroides (ALOMY); assay: Post-emergence herbicidal action against ALOMY; conditions: 320 g/ha, visual rating about 3 weeks after treatment vs untreated controls (100% = plants have died, 0% = like control plants)
In short: (§3)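 Post-emergence greenhouse spray, one-leaf stage, 600 l/ha water plus 0.5% additive; WP or EC formulations; application rates 320 g/ha or lower. Visual % damage vs untreated controls at ~3 weeks.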

[10] = system: Amaranthus retroflexus (AMARE); assay: Post-emergence herbicidal action against AMARE
In short: as §3

Avena fatua (AVEFA) [11] = assay: Post-emergence herbicidal action against AVEFA; conditions: 320 g/ha, visual rating about 3 weeks after treatment
In short: as §3

[12] = system: Echinochloa crus-galli (ECHCG); assay: Post-emergence herbicidal action against ECHCG; conditions: dosage 320 g/ha
In short: as §3

Lolium rigidum (LOLRI) [13] = assay: Post-emergence herbicidal action against LOLRI; conditions: dosage 320 g/ha
In short: as §3

[14] = system: Polygonum convolvulus (POLCO); assay: Post-emergence herbicidal action against POLCO; conditions: dosage 320 g/ha
In short: as §3

Setaria viridis (SETVI) [15] = assay: Post-emergence herbicidal action against SETVI; conditions: dosage 320 g/ha
In short: as §3

[16] = system: Verconica persica (VERPE); assay: Post-emergence herbicidal action against VERPE
In short: as §3

Viola tricolor (VIOTR) [17] = assay: Post-emergence herbicidal action against VIOTR; conditions: 320 g/ha
In short: as §3

Oryza sativa (ORYSA) = conditions: crop plant compatibility, effect in comparison to untreated controls
In short: (§4)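 Effects were read visually as % versus untreated controls (0% = no effect, 100% = death) about 3 weeks post-treatment. Application was a post-emergence spray at the one-leaf stage of WP/EC formulations with 0.5% additive at 600 l/ha. Different dosages are denoted a, b and c.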

[18] = system: Digitaria sanguinalis (DIGSA); assay: Pre-emergence herbicidal action against DIGSA; conditions: dosage 320 g/ha
In short: as §1

[19] = system: Polygonum convolvulus (POLCO); assay: Pre-emergence herbicidal action against POLCO
In short: as §1

[20] = system: Pharbitis purpurea (PHBPU); assay: Post-emergence herbicidal action against PHBPU; conditions: dosage 320 g/ha
In short: as §3

Zea mays (ZEAMX) [21] = conditions: crop plant compatibility, 80 g/ha, effect vs untreated controls
In short: as §4

[22] = system: Echinochloa crus-galli (ECHCG); assay: Pre-emergence herbicidal action against ECHCG; conditions: dosage 320 g/ha
In short: as §1

[23] = system: Pharbitis purpurea (PHBPU); assay: Pre-emergence herbicidal action against PHBPU; conditions: dosage 320 g/ha
In short: as §1

[24] = system: Triticum aestivum (TRZAS); conditions: crop plant compatibility, 80 g/ha, effect vs untreated controls
In short: as §4

[25] = 320 g/ha, visual rating about 3 weeks after treatment

Row | SMILES | Pre-emergence action against ALOMY [1] [%] | Pre-emergence action against AMARE in % [2] [%] | Pre-emergence action against LOLRI in % (Lolium rigidum (LOLRI) [4]) [%] | Pre-emergence action against SETVI in % (Setaria viridis (SETVI) [6]) [%] | Pre-emergence action against VIOTR in % (Viola tricolor (VIOTR) [7]; 320 g/ha, Viola tricolor) [%] | Pre-emergence action against GLXMA in % (Glycine max (GLXMA)) [%] | Post-emergence action against ALOMY in % [9] [%] | Post-emergence action against AMARE in % [10, 25] [%] | Post-emergence action against ECHCG in % [12] [%] | Post-emergence action against LOLRI in % (Lolium rigidum (LOLRI) [13]) [%] | Post-emergence action against POLCO in % [14] [%] | Post-emergence action against SETVI in % (Setaria viridis (SETVI) [15]) [%] | Post-emergence action against VERPE in % ([16]; 320 g/ha, VERPE) [%] | Post-emergence action against VIOTR in % (Viola tricolor (VIOTR) [17]) [%] | Post-emergence action against ORYSA in % (Oryza sativa (ORYSA); 80 g/ha) [%] | Pre-emergence action against POLCO in % ([19]; dosage 320 g/ha) [%] | Post-emergence action against PHBPU in % [20] [%] | Post-emergence action against ZEAMX in % (Zea mays (ZEAMX) [21]) [%] | further results
1 | C[C@@H](Oc1nn(-c2ncccc2F)c(-c2ccc(F)nc2)c1F)C(=O)O [Example I-306] | 90 | 90 | 100 | 80 | 80 | 0 | 100 | 80 | 90 | 90 | 80 | 90 | 90 | 80 | 0 |  |  |  | Pre-emergence action against AVEFA in % (Avena fatua (AVEFA) [3]): 80%; Pre-emergence action against MATIN in % ([5]; dosage 80 g/ha): 90%; Pre-emergence action against MATIN in % ([5]; dosage 320 g/ha): 90%; Pre-emergence action against ZEAMX in % (Zea mays (ZEAMX) [8]): 20%; Post-emergence action against AMARE in % ([10]; 80 g/ha, visual rating about 3 weeks after treatment vs untreated controls (100% = plants have died, 0% = like control plants)): 80%; Post-emergence action against AVEFA in % (Avena fatua (AVEFA) [11]): 80%
2 | C[C@@H](Oc1nn(-c2ccccn2)c(-c2ccc(Cl)nc2)c1Cl)C(=O)O [Example I-238] | 90 | 80 | 90 |  | 90 | 20 | 80 | 80 | 80 | 80 | 80 |  |  | 80 | 0 | 80 | 80 | 10 | Pre-emergence action against DIGSA in % [18]: 90%; Post-emergence action against ORYSA in % (Oryza sativa (ORYSA); 320 g/ha): 10%
3 | O=C(O)COc1nn(-c2ncccc2C(F)(F)F)c(-c2cncc(F)c2)c1Br [Example I-230] |  | 80 |  | 100 | 90 | 20 |  | 90 | 80 |  | 80 | 80 | 80 | 80 | 0 | 90 | 90 | 0 | Pre-emergence action against ECHCG in % [22]: 90%; Pre-emergence action against PHBPU in % [23]: 90%; Pre-emergence action against POLCO in % ([19]; dosage 80 g/ha): 80%; Pre-emergence action against VIOTR in % (Viola tricolor (VIOTR) [7]; dosage 80 g/ha): 80%; Post-emergence action against VERPE in % ([16]; dosage 80 g/ha): 80%; Post-emergence action against TRZAS in % [24]: 10%
